Measurements taken from US20060173079A1, “Compositions and methods for improving the condition of patients suffering from copd and other diseases” (priority 2003, published 2006).
Entries after “also recorded” stand apart in the source; their conditions may differ.

Legend:
[1] = Plasma urea concentration after test drinks; type: in vivo, human; settings: for plasma urea compared to baseline values: healthy control and COPD group, 30.0 mg GLU/kg or 29.8 mg glutamine/kg every 20 min for 4 hours
Description: The 3 test drinks were studied on different days and in a randomized order using a similar study protocol.

[2] = Plasma lactate response to exercise; type: in vivo, human
Experimental: (§1) The subjects were measured before and during a submaximal constant work rate cycle test of 20 minutes (at 50% of their maximal workload previously achieved during an incremental exercise test).

[3] = system: whole body leucine turnover; assay: Whole body leucine turnover (leucine tracer); type: in vivo, human
Experimental: FIG. 11: Whole body leucine rate of appearance gives a reflection of whole body leucine turnover and is the sum of leucine turnover coming from protein breakdown and from other (non-protein) sources.
as §1

[4] = GLU appearance in plasma and splanchnic GLU extraction (stable isotope methodology); type: in vivo, human; settings: young subjects, after start of GLU ingestion
[5] = Plasma GLU concentration after continuous ingestion of a glutamate enriched drink; type: in vivo, human
Description: When using a continuous infusion protocol of stable isotopes, plasma glutamate concentrations have to be in steady state condition before metabolic data can be obtained.
Subsequently, we performed several pilot studies (summary see FIG. 1) in order to obtain the optimal dose of glutamate. Pilot studies included continuous ingestion of a glutamate enriched drink and evaluation of the concentration of glutamate and related amino acids in plasma.
In the 2nd pilot study, we decided to use the pure form of glutamate to avoid the large sodium content. […] Blood samples were taken to evaluate plasma glutamate level.
This protocol was used in further studies.

[6] = Side effects / tolerance incl. Chinese restaurant syndrome (food tolerance questionnaire); type: in vivo, human; settings: for side effects / adverse complaints (including Chinese Restaurant syndrome symptoms): COPD patients and healthy control subjects, 6-7 g/hour for 4-6 hours
Experimental: In all the pilot studies, the patients and the healthy control subjects in the age ranging from 20 to 80 years were run through a protocol to determine feasibility.
In the experiments the intake of glutamate is usually in the order of 6-7 g/hour for a period of 4-6 hours meaning a total intake of […].
Moreover, a placebo (glutamine) was used for comparison.

[7] = system: myofibrillar (muscle) protein breakdown; assay: Myofibrillar protein breakdown (3-methylhistidine turnover / rate of appearance); type: in vivo, human; settings: for 3-methylhistidine rate of appearance in plasma during exercise: submaximal cycle exercise 20 min at 50% maximal workload, GLU versus water
[8] = system: whole body protein breakdown; assay: Whole body protein breakdown (phenylalanine turnover, stable isotope methodology); type: in vivo, human; settings: young healthy volunteers, during GLU supplementation
Experimental: In the young healthy volunteers, whole body protein and 3-methylhistidine turnover were measured during glutamate supplementation using stable isotope methodology. […] In order to elucidate the contribution of muscle to whole body protein metabolism, the rate of myofibrillar protein breakdown (3-methylhistidine turnover) was simultaneously measured.

[9] = cited from earlier work

NC(=O)CC[C@H](N)C(=O)O [GLN, glutamine, reference compound]
plasma urea compared to baseline values [1]: increased

N[C@@H](CCC(=O)O)C(=O)O [GLU, L-glutamic acid]
plasma urea compared to baseline values [1]: decreased
plasma urea concentration after intake ([1]; healthy young volunteers, GLU with carbohydrate (maltodextrin) protein meal): decreased
increase in plasma lactate concentration during exercise versus water ([2]; COPD group (text to FIG. 13)): lower increase
increase in plasma lactate concentration during exercise versus water ([2]; healthy control group (FIG. 13 legend)): lower increase
whole body leucine turnover not related to protein turnover ([3]; at rest, COPD and control subjects): reduction
increase in whole body leucine turnover during exercise ([3]; cycle exercise 20 min at 50% maximal workload, 30 mg GLU/kg every 20 min versus water, COPD (and control) group): diminished the increase
time to steady state of whole body GLU plasma appearance [4]: ≤ 1.5 h
time to steady state in GLU concentration after start of ingestion ([5]; 4 subjects, 30 mg GLU/kg body weight every 20 min (FIG. 2)): ≤ 2 h
rise in plasma GLU concentration, COPD group versus control group ([5]; 8 COPD patients vs 8 healthy controls, 30 mg GLU/kg every 20 min): significantly lower
plasma GLU level compared to baseline ([5]; COPD patients and healthy age-matched control subjects (both groups), 30 mg GLU/kg every 20 min, 120 min after start): significantly increased; also recorded: significant increase
steady state in plasma glutamate level ([5]; healthy volunteers, 69.4 mg glutamate/kg body weight every 30 minutes (2.4% solution)): 30 min intervals were too long to reach a steady state
time to steady state of plasma glutamate concentration ([5]; healthy young volunteers, 30 mg GLU/kg body weight every 20 min): ≤ 120 min
increase in the plasma glutamate concentration ([5]; healthy young volunteers, 30 mg GLU/kg body weight every 20 min (2.4% solution), total 300 mg/kg): about 500%
plasma GLU concentration ([5]; healthy young volunteers, GLU added to carbohydrate (maltodextrin) whey protein meal (carbohydrate:protein:glutamate=5:2:5)): significantly increased to steady state values
CRS effects versus placebo (glutamine) ([6]; 26 healthy volunteers, 30 mg GLU/kg every 20 min): No significant differences
number and severity of complaints versus placebo (glutamine) ([6]; 26 healthy volunteers, 30 mg GLU/kg every 20 min, questionnaire until 2 hours after last ingestion): No differences
subjects having the symptoms known as Chinese restaurant syndrome ([6]; 26 healthy volunteers, 30 mg GLU/kg every 20 min, until 2 hours after ingestion): less than 5%
side effects / adverse complaints (including Chinese Restaurant syndrome symptoms) [6]: none
side effects / adverse complaints (including Chinese Restaurant syndrome symptoms) ([6]; listed as glutamate): do not occur
myofibrillar protein breakdown during the first 10 minutes of exercise ([7]; COPD group, cycle exercise, ingesting glutamate): reduction
3-methylhistidine rate of appearance in plasma during exercise ([7]; COPD group): abolished the increase
3-methylhistidine rate of appearance in plasma during exercise ([7]; COPD group, listed as glutamate): diminished
myofibrillar protein breakdown (3-methylhistidine turnover) ([7]; young healthy volunteers at rest, in less than one hour after GLU ingestion): reduction; also recorded: decreased
whole body protein breakdown rate (phenylalanine turnover) [8]: gradual decrease; also recorded: significantly decreased

N[C@@H](CCC(=O)O)C(=O)[O-].[Na+] [MSG, monosodium glutamate]
side effects after high (bolus) dose ([9]; Graham et al., healthy subjects, bolus MSG): transient headaches
plasma GLU concentration versus dose ([9]; Stegink et al. and Ghezzi et al., healthy volunteers, various concentrations of MSG): increased proportionally to the given dose
muscle GLU concentration ([9]; young healthy men, glutamate provided in excess as MSG): increase
tolerance of the drink ([6]; healthy volunteers, 3.6% MSG solution, 80.3 mg MSG/kg body weight every 30 minutes): well
